In patent publication US9975854B2, “Benzomorphan analogs and use thereof” (Purdue Pharma L.P., priority 2014, dated 2018):
Like-named read-outs stand apart in the source and are kept apart here.

Target: μ-opioid receptor (Homo sapiens (Human), UniProt P35372)
Test: μ-opioid receptor [35S]GTPγS functional assay, HEK-293 or CHO cells
Format: biochemical
Conditions: HEK-293 or CHO cells; for EC50: read-out: GTPγS μ EC50; for Emax: relative to DAMGO
Experimental: [^35S]GTPγS functional assays were conducted using freshly thawed μ-receptor membranes prepared in-house from a cell line expressing recombinant opioid receptor in a HEK-293, CHO or U-2 OS cell background, or purchased from a commercial source (Perkin Elmer, Shelton, Conn.; or DiscovRx, Fremont, Calif.). Assay reactions were prepared by sequentially adding the following reagents to binding buffer (100 mM NaCl, 10 mM MgCl2, 20 mM HEPES, pH 7.4) on ice (final concentrations indicated): membrane protein (0.026 mg/mL), saponin ([…]), GDP ([…]) and [^35S]GTPγS (0.20 nM; Perkin Elmer, Shelton, Conn.). The prepared membrane solution (190 μl/well) was transferred to 96-shallow well polypropylene plates containing 10 μl of 20× concentrated stock solutions of the agonist [D-Ala^2, N-methyl-Phe^4 Gly-ol^5]-enkephalin (DAMGO) prepared in dimethyl sulfoxide (DMSO). Plates were incubated for 30 min at about 25° C. with shaking. Reactions were terminated by rapid filtration onto 96-well Unifilter GF/B filter plates (Perkin Elmer, Shelton, Conn.) using a 96-well tissue harvester (Perkin Elmer, Shelton, Conn.) followed by three filtration washes with 200 μl of ice-cold wash buffer (10 mM NaH2PO4, 10 mM Na2HPO4, pH 7.4). Filter plates were subsequently dried at 50° C. for 2-3 hr. BetaScint scintillation cocktail (Perkin Elmer, Shelton, Conn.) was added (50 μl/well) and plates were counted using a Packard Top-Count for 1 min/well. Data were analyzed using the sigmoidal dose-response curve fitting functions in GraphPad PRISM v. 3.0, or an in-house function for non-linear, sigmoidal dose-response curve-fitting.
μ GTP EC50 is the concentration of a compound providing 50% of the maximal response for the compound at a μ-opioid receptor.
μ GTP Emax (%) is the maximal effect elicited by a compound relative to the effect elicited by DAMGO, a standard p agonist. Generally, the μ GTP Emax (%) value measures the efficacy of a compound to treat or prevent pain or other Conditions.
In TABLE 4, activity response of certain Compounds of the Invention to the μ- and κ-opioid receptors was determined as described above for functional assays using HEK-293 or CHO cells.

| Compound | EC50 [µM] | Emax [%] | EC50 (bound given in uM) [µM] |
| --- | --- | --- | --- |
| CN(CC1CCN(S(=O)(=O)Cc2ccccc2)CC1)C1[C@H]2Cc3ccc(O)cc3C1(C)CCN2C (stereo in doubt) [Compound 58, (2R,6S,11S)-11-(((1-(benzylsulfonyl)piperidin-4-yl)methyl)(methyl)amino)-3,6-dimethyl-1,2,3,4,5,6-hexahydro-2,6-methanobenzo[d]azocin-8-ol] | 0.0132 ± 0.00071 | 58 ± 7.55 | – |
| CN1CC[C@@]2(C)c3cc(O)ccc3C[C@@H]1[C@@H]2NCc1ccccc1 [Compound 108, (2R,6S,11R)-11-(benzylamino)-3,6-dimethyl-1,2,3,4,5,6-hexahydro-2,6-methanobenzo[d]azocin-8-ol] | 11.7 ± 3.29 | 17.1 ± 0.67 | – |
| CN1CC[C@@]2(C)c3cc(O)ccc3C[C@@H]1[C@H]2NCCC1CCCCC1 [Compound 17, (2R,6S,11 S)-11-((2-cyclohexylethyl)amino)-3,6-dimethyl-1,2,3,4,5,6-hexahydro-2,6-methanobenzo[d]azocin-8-ol] | 0.0929 ± 0.00079 | 55.3 ± 4.1 | – |
| CCN(CCc1ccc(S(C)(=O)=O)cc1)[C@H]1[C@H]2Cc3ccc(O)cc3[C@]1(C)CCN2C [Compound 98, (2R,6S,11R)-11-(ethyl(4-(methylsulfonyl)phenethyl)amino)-3,6-dimethyl-1,2,3,4,5,6-hexahydro-2,6-methanobenzo[d]azocin-8-ol] | 0.00064 ± 8.2e-05 | 44.6 ± 0.6 | – |
| CCS(=O)(=O)N1CCC(CN(C)[C@H]2[C@H]3Cc4ccc(O)cc4[C@]2(C)CCN3C)CC1 [Compound 56, (2R,6S,11R)-11-(((1-(ethylsulfonyl)piperidin-4-yl)methyl)(methyl)amino)-3,6-dimethyl-1,2,3,4,5,6-hexahydro-2,6-methanobenzo[d]azocin-8-ol] | 0.0967 ± 0.00987 | 62 ± 1.53 | – |
| CN1CC[C@@]2(C)c3cc(O)ccc3C[C@@H]1[C@@H]2NC(=O)CC(=O)Nc1ccc(F)cc1F [Compound 30, N^1-(2,4-difluorophenyl)-N^3—((2R,6S,11R)-8-hydroxy-3,6-dimethyl-1,2,3,4,5,6-hexahydro-2,6-methanobenzo[d]azocin-11-yl)malonamide] | – | 2.67 ± 3.67 | > 20 |
| CN1CC[C@@]2(C)c3cc(C(N)=O)ccc3C[C@@H]1[C@@H]2N(C)C(=O)Cc1ccccc1 [Compound 124, (2R,6S,11R)-3,6-dimethyl-11-(N-methyl-2-phenylacetamido)-1,2,3,4,5,6-hexahydro-2,6-methanobenzo[d]azocine-8-carboxamide] | 3.54 ± 0.48 | 81.6 ± 3.37 | – |
| COc1ccc2c(c1)[C@]1(C)CCN(C)[C@H](C2)[C@@H]1N(C)C(=O)CN1CCNC(=O)C1 [Compound 44, N-((2R,6S,11R)-8-methoxy-3,6-dimethyl-1,2,3,4,5,6-hexahydro-2,6-methanobenzo[d]azocin-11-yl)-N-methyl-2-(3-oxopiperazin-1-yl)acetamide] | – | 43 ± 2.52 | > 20 |
| CN1CC[C@@]2(C)c3cc(C#N)ccc3C[C@@H]1[C@@H]2NCCc1ccccc1 [Compound 113, (2R,6S,11R)-3,6-dimethyl-11-(phenethylamino)-1,2,3,4,5,6-hexahydro-2,6-methanobenzo[d]azocine-8-carbonitrile] | 11.7 ± 2.81 | 10.3 ± 1.1 | – |
| CCn1c(NC(=O)N(C)[C@H]2[C@H]3Cc4ccc(OC)cc4[C@]2(C)CCN3C)nc2ccccc21 [Compound 110, 3-(1-Ethyl-1H-benzo[d]imidazol-2-yl)-1-((2R,6S,11R)-8-methoxy-3,6-dimethyl-1,2,3,4,5,6-hexahydro-2,6-methanobenzo[d]azocin-11-yl)-1-methylurea] | 0.851 ± 0.161 | 89.2 ± 6.05 | – |
| CN1CC[C@@]2(C)c3cc(O)ccc3C[C@@H]1[C@H]2N(CCO)CCc1ccc(F)cc1 [Compound 77, (2R,6S,11S)-11-((4-fluorophenethyl)(2-hydroxyethyl)amino)-3,6-dimethyl-1,2,3,4,5,6-hexahydro-2,6-methanobenzo[d]azocin-8-ol] | 0.00796 ± 0.00069 | 87 ± 1.73 | – |
| CCN(C(=O)Nc1ccc(C#N)cc1)[C@H]1[C@H]2Cc3ccc(O)cc3[C@]1(C)CCN2C [Compound 91, 3-(4-cyanophenyl)-1-ethyl-1-((2R,6S,11R)-8-hydroxy-3,6-dimethyl-1,2,3,4,5,6-hexahydro-2,6-methanobenzo[d]azocin-11-yl)urea] | 0.0463 ± 0.0041 | 75.3 ± 2.19 | – |
| CN1CC[C@@]2(C)c3cc(O)ccc3C[C@@H]1[C@@H]2NCCOc1ccccc1 [Compound 15, (2R,6S,11R)-3,6-dimethyl-11-((2-phenoxyethyl)amino)-1,2,3,4,5,6-hexahydro-2,6-methanobenzo[d]azocin-8-ol] | 0.124 ± 0.0204 | 97.7 ± 1.76 | – |
| CN1CC[C@@]2(C)c3cc(O)ccc3C[C@@H]1[C@@H]2N(C)CC(=O)Nc1ccc(C(F)(F)F)cc1 [Compound 41, 2-(((2R,6S,11R)-8-hydroxy-3,6-dimethyl-1,2,3,4,5,6-hexahydro-2,6-methanobenzo[d]azocin-11-yl)(methyl)amino)-N-(4-(trifluoromethyl)phenyl)acetamide] | – | 5.33 ± 1.45 | > 20 |
| CN1CC[C@@]2(C)c3cc(O)ccc3C[C@@H]1[C@H]2NCCc1ccc(S(C)(=O)=O)cc1 [Compound 11, (2R,6S,11S)-3,6-dimethyl-11-((4-(methylsulfonyl)phenethyl)amino)-1,2,3,4,5,6-hexahydro-2,6-methanobenzo[d]azocin-8-ol] | 0.0356 ± 0.0059 | 16.7 ± 0.33 | – |
| CC(C)CS(=O)(=O)N1CCC(CN(C)C2[C@H]3Cc4ccc(O)cc4C2(C)CCN3C)CC1 (stereo in doubt) [Compound 59, (2R,6S,11S)-11-(((1-(isobutylsulfonyl)piperidin-4-yl)methyl)(methyl)amino)-3,6-dimethyl-1,2,3,4,5,6-hexahydro-2,6-methanobenzo[d]azocin-8-ol] | 0.0528 ± 0.005 | 27 ± 1.53 | – |
| CN1CC[C@@]2(C)c3cc(C(N)=O)ccc3C[C@@H]1[C@@H]2N(C)C(=O)Nc1ccc(C#N)cc1 [Compound 119, (2R,6S,11R)-11-(3-(4-cyanophenyl)-1-methylureido)-3,6-dimethyl-1,2,3,4,5,6-hexahydro-2,6-methanobenzo[d]azocine-8-carboxamide] | 4.95 ± 0.508 | 43.9 ± 1.88 | – |
| CN1CC[C@@]2(C)c3cc(C(=O)O)ccc3C[C@@H]1[C@@H]2NCCc1ccc(S(C)(=O)=O)cc1 [Compound 126, (2R,6S,11R)-3,6-dimethyl-11-((4-(methylsulfonyl)phenethyl)amino)-1,2,3,4,5,6-hexahydro-2,6-methanobenzo[d]azocine-8-carboxylic acid] | – | 18.4 ± 0.3 | > 20 |
| CN1CCC2(C)c3cc(O)ccc3C[C@@H]1C2NC(=O)CCC(=O)Nc1ccc(F)cc1F (stereo in doubt) [Compound 34, N^1-(2,4-difluorophenyl)-N^4-((2R,6S,11S)-8-hydroxy-3,6-dimethyl-1,2,3,4,5,6-hexahydro-2,6-methanobenzo[d]azocin-11-yl)succinamide] | – | 2.67 ± 0.33 | > 20 |
| CN1CC[C@@]2(C)c3cc(O)ccc3C[C@@H]1[C@@H]2N(C)C(=O)Nc1nc2ccc(F)cc2s1 [Compound 81, 3-(6-fluorobenzo[d]thiazol-2-yl)-1-((2R,6S,11R)-8-hydroxy-3,6-dimethyl-1,2,3,4,5,6-hexahydro-2,6-methanobenzo[d]azocin-11-yl)-1-methylurea] | – | -1 | > 20 |
| CCn1c(NC(=O)N(C)[C@H]2[C@H]3Cc4ccc(O)cc4[C@]2(C)CCN3C)nc2ccccc21 [Compound 112, 3-(1-ethyl-1H-benzo[d]imidazol-2-yl)-1-((2R,6S,11R)-8-hydroxy-3,6-dimethyl-1,2,3,4,5,6-hexahydro-2,6-methanobenzo[d]azocin-11-yl)-1-methylurea] | 0.0141 ± 0.00052 | 84.2 ± 0.94 | – |
| CN1CC[C@@]2(C)c3cc(O)ccc3C[C@@H]1[C@H]2NCC1(O)CCCCC1 [Compound 13, (2R,6S,11S)-11-(((1-hydroxycyclohexyl)methyl)amino)-3,6-dimethyl-1,2,3,4,5,6-hexahydro-2,6-methano-benzo[d]azocin-8-ol] | 1.07 ± 0.172 | 45.7 ± 1.76 | – |
| CN1CC[C@@]2(C)c3cc(O)ccc3C[C@@H]1[C@@H]2N(CCc1ccc(F)cc1)CC(N)=O [Compound 74, 2-((4-fluorophenethyl)-((2R,6S,11R)-8-hydroxy-3,6-dimethyl-1,2,3,4,5,6-hexahydro-2,6-methanobenzo[d]azocin-11-yl)amino)acetamide] | 0.00112 ± 0.00017 | 83.2 ± 3.47 | – |
| CN1CC[C@@]2(C)c3cc(C(=O)O)ccc3C[C@@H]1[C@H]2NCCc1ccc(S(C)(=O)=O)cc1 [Compound 125, (2R,6S,11S)-3,6-dimethyl-11-((4-(methylsulfonyl)phenethyl)amino)-1,2,3,4,5,6-hexahydro-2,6-methanobenzo[d]azocine-8-carboxylic acid] | – | 0 | > 20 |
